Data: PubChem BioAssay AID328 (DTP/NCI, 2004)
Values joined by “and” are separate entries in the source; they are usually repeats but may differ in a detail not shown here. Identical values can stand only once. Inconclusive results and toxic doses are left out.

Tested on: BDF1 mice, P388 leukemia ip, median survival T/C
Test: NCI In Vivo Anticancer Drug Screen. Data for tumor model P388 Leukemia (intraperitoneal) in B6D2F1 (BDF1) mice
Details: endpoint: median survival time, higher = longer survival
Summary of the method: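 Mice carrying the transplantable tumour receive compound or vehicle. Survival is followed in each arm, and the treated measure is divided by the vehicle measure.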

[1] = dose: 50.0 mg/kg/injection, schedule: Q01DX005 (ip), vehicle: saline with Tween-80
[2] = dose: 100.0 mg/kg/injection, schedule: Q01DX005 (ip), vehicle: saline with Tween-80
[3] = dose: 200.0 mg/kg/injection, schedule: Q01DX005 (ip), vehicle: saline with Tween-80
[4] = dose: 50.0 mg/kg/injection, schedule: Q01DX009 (ip), vehicle: saline with Tween-80
[5] = dose: 100.0 mg/kg/injection, schedule: Q01DX009 (ip), vehicle: saline with Tween-80
[6] = dose: 200.0 mg/kg/injection, schedule: Q01DX009 (ip), vehicle: saline with Tween-80
[7] = dose: 100.0 mg/kg/injection, schedule: Q04DX003 (ip), vehicle: saline with Tween-80
[8] = dose: 200.0 mg/kg/injection, schedule: Q04DX003 (ip), vehicle: saline with Tween-80
[9] = dose: 12.5 mg/kg/injection, schedule: Q01DX009 (ip), vehicle: saline with Tween-80
[10] = dose: 25.0 mg/kg/injection, schedule: Q01DX009 (ip), vehicle: saline with Tween-80
[11] = dose: 400.0 mg/kg/injection, schedule: Q04DX003 (ip), vehicle: saline with Tween-80
[12] = dose: 25.0 mg/kg/injection, schedule: Q04DX003 (ip), vehicle: saline with Tween-80
[13] = dose: 100.0 mg/kg/injection, schedule: Q04DX003 (ip), vehicle: saline
[14] = dose: 200.0 mg/kg/injection, schedule: Q04DX003 (ip), vehicle: saline

C=CC(C)C(C)(OCc1ccccc1)C(=O)O (stereo unspecified)
T/C [1]: 100 % of control | T/C [2]: 113 % of control | T/C [3]: 106 % of control

O=C(c1ccccc1)N1CC=Cc2ccccc21
T/C [4]: 105 % of control | T/C [5]: 100 % of control | T/C [6]: 105 % of control

CC(=O)Nc1ccc2c(c1)OCO2
T/C [4]: 104 % of control | T/C [5]: 104 % of control | T/C [7]: 95 % of control | T/C [6]: 90 % of control | T/C [8]: 113 % of control

COc1ccc(C(=O)C(C)Br)c(OCc2ccccc2)c1OC (stereo unspecified)
T/C [9]: 100 % of control | T/C [10]: 95 % of control | T/C [4]: 100 % of control | T/C [5]: 90 % of control | T/C [7]: 95 % of control | T/C [6]: 95 % of control | T/C [8]: 114 % of control | T/C [11]: 104 % of control

COC(=O)C1CC(O)CN1C(=O)c1c2nc3c(C(=O)N4CC(O)CC4C(=O)OC)ccc(C)c3oc-2c(C)c(=O)c1N (stereo unspecified)
T/C [7]: 96 % of control | T/C [8]: 100 % of control | T/C [11]: 114 % of control

COc1ccc(/C=N/Nc2nc3ccc4ccccc4c3s2)cc1
T/C [4]: 90 % of control | T/C [5]: 101 % of control | T/C [6]: 115 % of control

Brc1cc(Br)c(I)c(Br)c1
T/C (dose: 100.0 mg/kg/injection, schedule: Q01DX009 (ip), vehicle: other): 105 % of control | T/C (dose: 200.0 mg/kg/injection, schedule: Q01DX009 (ip), vehicle: other): 100 % of control | T/C (dose: 400.0 mg/kg/injection, schedule: Q01DX009 (ip), vehicle: other): 90 % of control

N[C@@H](Cc1ccc(N(CCCl)CCCl)cc1)C(=O)O
T/C (dose: 0.5 mg/kg/injection, schedule: Q01DX009 (ip), vehicle: saline): 167 % of control | T/C (dose: 0.5 mg/kg/injection, schedule: Q01DX010 (ip), vehicle: saline): 227 % of control | T/C (dose: 1.0 mg/kg/injection, schedule: Q01DX009 (ip), vehicle: saline): 245 % of control and 188 % of control | T/C (dose: 1.0 mg/kg/injection, schedule: Q01DX010 (ip), vehicle: saline): 277 % of control | T/C (dose: 2.0 mg/kg/injection, schedule: Q01DX009 (ip), vehicle: saline): 237 % of control and 254 % of control | T/C (dose: 2.0 mg/kg/injection, schedule: Q01DX010 (ip), vehicle: saline): 300 % of control | T/C (dose: 2.5 mg/kg/injection, schedule: Q04DX003 (ip), vehicle: water): 205 % of control | T/C (dose: 3.6 mg/kg/injection, schedule: Q01DX001 (ip), vehicle: saline): 150 % of control and 181 % of control | T/C (dose: 4.0 mg/kg/injection, schedule: Q01DX009 (ip), vehicle: saline): 113 % of control | T/C (dose: 4.0 mg/kg/injection, schedule: Q01DX010 (ip), vehicle: saline): 113 % of control | T/C (dose: 4.0 mg/kg/injection, schedule: Q04DX003 (ip), vehicle: Klucel (hydroxypropylcellulose) (HPC)): 236 % of control | T/C (dose: 6.0 mg/kg/injection, schedule: Q01DX001 (ip), vehicle: saline): 167 % of control and 172 % of control | T/C (dose: 10.0 mg/kg/injection, schedule: Q01DX001 (ip), vehicle: Klucel (hydroxypropylcellulose) (HPC)): 227 % of control and 245 % of control | T/C (dose: 12.5 mg/kg/injection, schedule: Q01DX001 (ip), vehicle: Klucel (hydroxypropylcellulose) (HPC)): 240 % of control and 279 % of control | T/C (dose: 15.0 mg/kg/injection, schedule: Q01DX001 (ip), vehicle: Klucel (hydroxypropylcellulose) (HPC)): 295 % of control and 298 % of control | T/C (dose: 17.5 mg/kg/injection, schedule: Q01DX001 (ip), vehicle: Klucel (hydroxypropylcellulose) (HPC)): 286 % of control and 318 % of control | T/C (dose: 20.0 mg/kg/injection, schedule: Q01DX001 (ip), vehicle: Klucel (hydroxypropylcellulose) (HPC)): 254 % of control and 259 % of control | T/C (dose: 40.0 mg/kg/injection, schedule: Q04DX003 (ip), vehicle: water): 91 % of control and 96 % of control

O=C(NC(Cc1nn[nH]n1)C(=O)OCc1ccccc1)OCc1ccccc1 (stereo unspecified)
T/C [5]: 100 % of control | T/C [7]: 111 % of control | T/C [6]: 96 % of control | T/C [8]: 94 % of control | T/C [11]: 87 % of control

O=C1C=C(N2CC2)c2ccccc2C1=O
T/C (dose: 2.5 mg/kg/injection, schedule: Q01DX009 (ip), vehicle: Klucel (hydroxypropylcellulose) (HPC)): 100 % of control | T/C (dose: 5.0 mg/kg/injection, schedule: Q01DX009 (ip), vehicle: Klucel (hydroxypropylcellulose) (HPC)): 90 % of control | T/C (dose: 10.0 mg/kg/injection, schedule: Q01DX009 (ip), vehicle: Klucel (hydroxypropylcellulose) (HPC)): 104 % of control | T/C (dose: 11.0 mg/kg/injection, schedule: Q04DX003 (ip), vehicle: saline with Tween-80): 109 % of control | T/C (dose: 16.5 mg/kg/injection, schedule: Q04DX003 (ip), vehicle: saline with Tween-80): 104 % of control | T/C (dose: 20.0 mg/kg/injection, schedule: Q01DX009 (ip), vehicle: Klucel (hydroxypropylcellulose) (HPC)): 104 % of control | T/C [12]: 118 % of control

CC(Nc1ccccc1)(C(N)=O)c1ccccc1 (stereo unspecified)
T/C (dose: 25.0 mg/kg/injection, schedule: Q01DX001 (ip), vehicle: saline with Tween-80): 90 % of control | T/C (dose: 50.0 mg/kg/injection, schedule: Q01DX001 (ip), vehicle: saline with Tween-80): 104 % of control | T/C (dose: 100.0 mg/kg/injection, schedule: Q01DX001 (ip), vehicle: saline with Tween-80): 95 % of control | T/C (dose: 200.0 mg/kg/injection, schedule: Q01DX001 (ip), vehicle: saline with Tween-80): 90 % of control | T/C (dose: 400.0 mg/kg/injection, schedule: Q01DX001 (ip), vehicle: saline with Tween-80): 95 % of control

COc1ccc(C[n+]2cc([O-])on2)cc1
T/C [12]: 100 % of control | T/C (dose: 50.0 mg/kg/injection, schedule: Q04DX003 (ip), vehicle: saline with Tween-80): 100 % of control | T/C [7]: 109 % of control and 113 % of control | T/C [8]: 113 % of control

O=S(=O)(O)CNc1ccccc1
T/C [13]: 100 % of control | T/C [14]: 109 % of control | T/C (dose: 400.0 mg/kg/injection, schedule: Q04DX003 (ip), vehicle: saline): 95 % of control

Cc1ccccc1OCCCCCl
T/C [5]: 115 % of control | T/C [6]: 107 % of control | T/C (dose: 400.0 mg/kg/injection, schedule: Q01DX009 (ip), vehicle: saline with Tween-80): 115 % of control

Cc1ccc2c(c1)N=Cc1ccccc1O2
T/C (dose: 50.0 mg/kg/injection, schedule: Q01DX009 (ip), vehicle: saline + alcohol): 104 % of control | T/C (dose: 100.0 mg/kg/injection, schedule: Q01DX009 (ip), vehicle: saline + alcohol): 110 % of control | T/C (dose: 200.0 mg/kg/injection, schedule: Q01DX009 (ip), vehicle: saline + alcohol): 106 % of control

CCCSCCCC(=O)O
T/C (dose: 50.0 mg/kg/injection, schedule: Q04DX003 (ip), vehicle: Klucel (hydroxypropylcellulose) (HPC)): 91 % of control | T/C (dose: 200.0 mg/kg/injection, schedule: Q04DX003 (ip), vehicle: Klucel (hydroxypropylcellulose) (HPC)): 91 % of control

CCCCN(CCCC)CC(O)c1cc(-c2ccc(Cl)c(Cl)c2)cc2cc(Cl)ccc12 (stereo unspecified)
T/C [9]: 99 % of control | T/C [10]: 99 % of control | T/C [4]: 92 % of control and 97 % of control

N=c1cc(-c2ccc(Cl)cc2)ss1
T/C (dose: 50.0 mg/kg/injection, schedule: Q01DX009 (ip), vehicle: saline): 117 % of control | T/C (dose: 50.0 mg/kg/injection, schedule: Q04DX003 (ip), vehicle: saline): 97 % of control | T/C [13]: 105 % of control | T/C [14]: 108 % of control

C=C(C)CNc1ccccc1
T/C [10]: 119 % of control | T/C [4]: 123 % of control | T/C [5]: 103 % of control and 123 % of control

O=S(=O)(CBr)OCCCl
T/C [1]: 120 % of control | T/C [2]: 121 % of control | T/C [3]: 165 % of control

CCc1c(/C=C2/OC(=O)NC2=O)[nH]c(=S)[nH]c1=O
T/C [7]: 100 % of control | T/C [8]: 91 % of control | T/C [11]: 104 % of control

CN(C)/N=N/c1[nH]ncc1C(N)=O
T/C (dose: 50.0 mg/kg/injection, schedule: Q01DX009 (ip), vehicle: Klucel (hydroxypropylcellulose) (HPC)): 95 % of control | T/C (dose: 100.0 mg/kg/injection, schedule: Q01DX009 (ip), vehicle: Klucel (hydroxypropylcellulose) (HPC)): 104 % of control | T/C (dose: 100.0 mg/kg/injection, schedule: Q04DX003 (ip), vehicle: alcohol): 118 % of control | T/C (dose: 200.0 mg/kg/injection, schedule: Q04DX003 (ip), vehicle: alcohol): 113 % of control

O=C(c1ccccc1)C1CC1c1ccccc1 (stereo unspecified)
T/C (dose: 100.0 mg/kg/injection, schedule: Q01DX001 (ip), vehicle: Klucel (hydroxypropylcellulose) (HPC)): 120 % of control | T/C (dose: 200.0 mg/kg/injection, schedule: Q01DX001 (ip), vehicle: Klucel (hydroxypropylcellulose) (HPC)): 104 % of control | T/C (dose: 400.0 mg/kg/injection, schedule: Q01DX001 (ip), vehicle: Klucel (hydroxypropylcellulose) (HPC)): 100 % of control
